Test results from patent US20110123988A1, “ANTISENSE COMPOUNDS AND METHODS FOR DIAGNOSTIC IMAGING” (GENESEEN LLC, priority 2003, published 2011).

Tested on: cells expressing IGFR1 (murine BALB/c 3T3 cells; p6 cells overexpressing a transfected human IGFR1 gene; human Jurkat cells as negative control)
Assay: Cellular uptake of PNA-peptide conjugates by cells in vitro
Assay type: cell-based
Settings: versus control PNA Gly-CCGCTTCCTTTC without peptide; measured with both the 14C-conjugate and the fluoresceinyl-conjugate; BALB/c 3T3, p6 and Jurkat cells
Text: To improve cellular uptake of an IGFR1 antisense sequence targeted against IGFR1 mRNA codons 706-709 (CCGCTTCCTTTC, SEQ ID NO:42; Ullrich et al., 1986, EMBO J. 5:10:2503-2512), a PNA with this base sequence was conjugated to a D-amino acid IGF1 peptide having the sequence (Gly)4D(Cys-Ser-Lys-Cys). This peptide binds selectively to the cell surface receptor for insulin-like growth factor 1 (IGFR1), which is overexpressed on malignant cells (Pietrzkowski et al., 1992, Mol. Cell. Biol. 12:9:3883-3889). The same PNA was also conjugated to a control peptide of the sequence (Gly)4D(Cys-Ala-Ala-Cys), which is not expected to bind to cells expressing IGFR1. The IGF1 D-peptide and control peptide was assembled on (4-methyl benzhydrypamine (MBHA) resin, and then the PNA was extended as a continuation of the peptide. The IGF1 peptide and control peptide sequences were radiolabeled with ^14C or fluorescently labeled with fluorescein isothiocyanate (Basu & Wickstrom, 1997, Bioconj. Chem. 8:4:481-488).

Question: With “Gly-CCGCTTCCTTTC-(Gly)4D(CysSerLysCys) (PNA, Gly, (Gly)4, D-peptide, 14C or fluorescein label, chemistry not fully specified) [labeled with 14C or fluorescein]” as the substance, how does the cellular uptake read?
Answer: much higher uptake than the control Gly-CCGCTTCCTTTC, but only in cells expressing IGFR1
